The results in this text go back to patent publication US20150175603A1, “TRICYCLIC COMPOUNDS AS KAT II INHIBITORS” (PFIZER INC., priority 2012, published 2015).

Counter-ions that a name gives are not always drawn.

This assay has as its target human KAT II (hKAT II) enzyme (Homo sapiens, UniProt Q8N5Z0). Put plainly: KAT II Inhibition Spectra Assay. The class given is biochemical. Conditions: single determination unless marked a (geometric mean of 2-4 determinations); decrease in OD370, L-kynurenine substrate, 37° C. for 15-20 h; read-out: KATII IC50. On the procedure:
KAT II Inhibition Spectra Assay
Formation of kynurenic acid (KYNA) is indirectly assessed by a decrease in light absorbance at 370 nm (OD370) as the L-kynurenine (KYN) substrate is converted by the human KAT II (hKAT II) enzyme into KYNA. An inhibitor would therefore inhibit the decrease in OD370.
The protocol was performed by placing the following reagents into a Costar 384 well black plate (30 μL total assay volume/well): • 10 μL of 3× concentrated compound; • 10 μL of 3× concentrated substrate mix (BGG (Sigma G-5009); 3 mM L-Kynurenine in 150 mM Tris Acetate (Sigma K3750); 3 mM α-ketoglutaric acid in 150 mM Tris Acetate (Sigma K2010); and 210 μM pyridoxal 5-phosphate (PLP) in 150 mM Tris Acetate (Sigma 9255)); and • 10 μL of 3× concentrated enzyme (15 nM enzyme in 150 mM Tris Acetate with 0.3% bovine serum).
Plates were sealed and incubated at 37° C. for 15-20 h before reading OD370 on a SpectraMax Plus plate reader. IC50s were generated by comparing the efficacy of compounds across a concentration range to inhibit a reduction in the OD370 value relative to assay wells with DMSO added in place of concentrated compound. Biological data for the Examples may be found in Table 2.

human KAT II (hKAT II) enzyme, sequence (Q8N5Z0 30-425): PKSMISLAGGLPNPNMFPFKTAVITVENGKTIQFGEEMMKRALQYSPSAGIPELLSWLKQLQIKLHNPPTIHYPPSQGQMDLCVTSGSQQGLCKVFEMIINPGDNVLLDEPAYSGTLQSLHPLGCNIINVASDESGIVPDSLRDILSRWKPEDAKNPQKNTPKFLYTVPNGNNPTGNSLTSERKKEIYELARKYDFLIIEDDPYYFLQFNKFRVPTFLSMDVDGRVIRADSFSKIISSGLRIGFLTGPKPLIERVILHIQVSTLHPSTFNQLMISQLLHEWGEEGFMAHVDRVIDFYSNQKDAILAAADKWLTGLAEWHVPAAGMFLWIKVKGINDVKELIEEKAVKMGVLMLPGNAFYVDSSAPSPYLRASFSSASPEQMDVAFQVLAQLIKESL

As usually defined, the IC50 is the point on the concentration scale where inhibition reaches its midpoint. For the compound `CC(=O)c1cccc(-c2ccc3c(c2)CC(N)c2n[nH]c(=O)n2-3)c1` (centres unmarked) [Example 25, 7—(3—acetylphenyl)—4—amino—4,5—dihydro[1,2,4]triazolo[4,3—a]quinolin—1(2H)—one, trifluoroacetate salt], the IC50 amounted to 91.9 nM.

For `CC(C)Oc1cccc(-c2ccc3c(c2)CC(N)c2n[nH]c(=O)n2-3)c1` (centres unmarked) [Example 30, 4—amino—7—[3—(propan—2—yloxy)phenyl]—4,5—dihydro[1,2,4]triazolo[4,3—a]quinolin—1(2H)—one, trifluoroacetate salt], the IC50 turned out to be 534 nM.

As to `NC1Cc2cc(-c3ccccc3)ccc2-n2c1n[nH]c2=O` (centres unmarked) [Example 45, 4—amino—7—phenyl—4,5-dihydro[1,2,4]triazolo[4,3—a]quinolin—1(2H)—one, hydrochloride salt], the IC50 amounted to 790 nM.

With `NC1Cc2cc(-c3ccccc3Cl)ccc2-n2c1n[nH]c2=O` (centres unmarked) [Example 11, 4—amino—7—(2-chlorophenyl)—4,5—dihydro[1,2,4]triazolo[4,3—a]quinolin—1(2H)—one, trifluoroacetate salt], the IC50 was found to be 506 nM.

With `NC1Cc2cc(-c3cccc(F)c3)ccc2-n2c1n[nH]c2=O` (centres unmarked) [Example 34, 4—amino—7—(3—fluorophenyl)—4,5—dihydro[1,2,4]triazolo[4,3—a]quinolin—1(2H)—one, trifluoroacetate salt], the 50% inhibitory concentration (IC50) was 415 nM.

In the case of `COc1cccc(-c2ccc3c(c2)CC(N)c2n[nH]c(=O)n2-3)c1` (centres unmarked) [Example 28, 4—amino—7—(3—methoxyphenyl)—4,5—dihydro[1,2,4]triazolo[4,3—a]quinolin—1(2H)—one, trifluoroacetate salt], the IC50 is 357 nM.

As for `COc1cccc(Oc2ccc3c(c2)CC(N)c2nncn2-3)c1` (single isomer, unassigned; ent-1) [Example 4, 7-(3-Methoxyphenoxy)-4,5-dihydro[1,2,4]triazolo[4,3-a]quinolin-4-amine, ENT-1], the 50% inhibitory concentration (IC50) was 107 nM.

As to `NC1Cc2cc(-c3ccccc3OC(F)(F)F)ccc2-n2c1n[nH]c2=O` (centres unmarked) [Example 37, 4—amino—7—[2—(trifluoromethoxy)phenyl]—4,5—dihydro[1,2,4]triazolo[4,3—a]quinolin—1(2H)—one, trifluoroacetate salt], the IC50 turned out to be 527 nM.

Take `NC1Cc2cc(-c3ccc(Cl)cc3Cl)ccc2-n2c1n[nH]c2=O` (centres unmarked) [Example 35, 4—amino—7—(2,4—dichlorophenyl)—4,5—dihydro[1,2,4]triazolo[4,3—a]quinolin—1(2H)—one, trifluoroacetate salt]: the IC50 turned out to be 1380 nM.

Regarding `NC1Cc2cc(Oc3ccccc3)cnc2-n2c1n[nH]c2=O` (single isomer, unassigned; ent-1) [Example 2, 6-Amino-3-phenoxy-6,8-dihydro[1,2,4]triazolo[4,3-a][1,8]naphthyridin-9(5H)-one, ENT-1], the IC50 came out at 59 nM.

Regarding `NC1Cc2cc(-c3ccc(F)nc3)ccc2-n2c1n[nH]c2=O` (centres unmarked) [Example 42, 4—amino—7—(6—fluoropyridin—3—yl)—4,5—dihydro[1,2,4]triazolo[4,3—a]quinolin—1(2H)—one, trifluoroacetate salt], the IC50 worked out at 849 nM.

For `NC1Cc2cc(-c3cc(C(F)(F)F)ccc3Cl)ccc2-n2c1n[nH]c2=O` (centres unmarked) [Example 21, 4—amino—7—[2—chloro—5—(trifluoromethyl)phenyl]—4,5—dihydro[1,2,4]triazolo[4,3—a]quinolin—1(2H)—one, trifluoroacetate salt], the IC50 was determined as 1250 nM.

As for `COc1cc2c(cc1Cc1ccccc1)CC(N)c1n[nH]c(=O)n1-2` (centres unmarked) [Example 47, 4—amino—7—benzyl—8—methoxy—4,5—dihydro[1,2,4]triazolo[4,3—a]quinolin—1(2H)—one, hydrochloride salt], the 50% inhibitory concentration (IC50) stood at 637 nM.

Take `COc1ccc(-c2ccc3c(c2)CC(N)c2n[nH]c(=O)n2-3)cn1` (centres unmarked) [Example 22, 4—amino—7—(6—methoxypyridin—3—yl)—4,5—dihydro[1,2,4]triazolo[4,3—a]quinolin—1(2M—one, trifluoroacetate salt]: the IC50 was found to be 1900 nM.

As for `NC1Cc2cc(-c3cccc(F)c3F)ccc2-n2c1n[nH]c2=O` (centres unmarked) [Example 26, 4—amino—7—(2,3-difluorophenyl)—4,5—dihydro[1,2,4]triazolo[4,3—a]quinolin—1(2H)—one, trifluoroacetate salt], the IC50 came to 364 nM.

For `COc1cncc(-c2ccc3c(c2)CC(N)c2n[nH]c(=O)n2-3)c1` (centres unmarked) [Example 13, 4—amino—7—(5—methoxypyriclin—3—yl)—4,5—dihydro[1,2,4]triazolo[4,3—a]quinolin—1(2H)—one, trifluoroacetate salt], the IC50 is 673 nM.

As to `Cn1cc2c(-c3ccc4c(c3)CC(N)c3n[nH]c(=O)n3-4)cccc2n1` (centres unmarked) [Example 41, 4—amino—7—(2—methyl—2H—indazol—4—yl)—4,5—dihydro[1,2,4]triazolo[4,3—a]quinolin—1(2H)—one, trifluoroacetate salt], the IC50 turned out to be 1080 nM.
